Measurements: the supplement of paper PMC10733146

What was measured:
Assay in all cases: viability relative to DMSO control (fraction); higher = less drug effect (more viable cells)
Details in all cases: 48 h
[1] = system: primary AML patient cells (S002)
Summary of the method: (§1)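 Compounds were pre-plated at five concentrations, one well each, in 384-well plates, and primary mononuclear tumour cells were plated on them at 4 × 10^4 cells per well. The cells, fresh or cryopreserved, had been Ficoll-isolated from blood or bone marrow or taken from processed lymph node. After 48 h at 37 °C and 5% CO2 in RPMI-1640 with penicillin/streptomycin, L-glutamine and human serum, viability was read as CellTiter-Glo luminescence relative to the median of 16 inner DMSO wells.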

[2] = system: primary AML patient cells (S009)
Summary of the method: as §1

[3] = system: primary AML patient cells (S019)
Summary of the method: as §1

[4] = system: primary AML patient cells (S025)
Summary of the method: as §1

[5] = system: primary AML patient cells (S037)
Summary of the method: as §1

[6] = system: primary AML patient cells (S055)
Summary of the method: as §1

[7] = system: primary AML patient cells (S071)
Summary of the method: as §1

[8] = system: primary AML patient cells (S072)
Summary of the method: as §1

[9] = system: primary AML patient cells (S079)
Summary of the method: as §1

[10] = system: primary AML patient cells (S089)
Summary of the method: as §1

[11] = system: primary AML patient cells (S091)
Summary of the method: as §1

[12] = system: primary DLBCL patient cells (S082)
Summary of the method: as §1

[13] = system: primary MCL patient cells (S041)
Summary of the method: as §1

[14] = system: primary T-PLL patient cells (S008)
Summary of the method: as §1

CNC(=O)c1cc(Oc2ccc(NC(=O)Nc3ccc(Cl)c(C(F)(F)F)c3)cc2)ccn1 [Sorafenib]
viability ([1]; 0.024 µM): 0.941 | viability ([1]; 0.12 µM): 1.07 | viability ([1]; 0.6 µM): 1.09 | viability ([1]; 3 µM): 1.29 | viability ([1]; 15 µM): 0.601 | viability ([2]; 0.024 µM): 0.947 | viability ([2]; 0.12 µM): 0.828 | viability ([2]; 0.6 µM): 0.869 | viability ([2]; 3 µM): 0.985 | viability ([2]; 15 µM): 0.906 | viability ([3]; 0.024 µM): 0.833 | viability ([3]; 0.12 µM): 1.18 | viability ([3]; 0.6 µM): 0.846 | viability ([3]; 3 µM): 1.11 | viability ([3]; 15 µM): 0.835 | viability ([4]; 0.024 µM): 0.988 | viability ([4]; 0.12 µM): 1.02 | viability ([4]; 0.6 µM): 1.06 | viability ([4]; 3 µM): 1.13 | viability ([4]; 15 µM): 0.813 | viability ([5]; 0.024 µM): 0.961 | viability ([5]; 0.12 µM): 1.06 | viability ([5]; 0.6 µM): 1.05 | viability ([5]; 3 µM): 1.05 | viability ([5]; 15 µM): 1.09 | viability ([6]; 0.024 µM): 0.971 | viability ([6]; 0.12 µM): 1.04 | viability ([6]; 0.6 µM): 1.02 | viability ([6]; 3 µM): 1.08 | viability ([6]; 15 µM): 1.04 | viability ([7]; 0.024 µM): 0.944 | viability ([7]; 0.12 µM): 1.01 | viability ([7]; 0.6 µM): 1.02 | viability ([7]; 3 µM): 1 | viability ([7]; 15 µM): 0.614 | viability ([8]; 0.024 µM): 1.02 | viability ([8]; 0.12 µM): 1.04 | viability ([8]; 0.6 µM): 0.99 | viability ([8]; 3 µM): 1.04 | viability ([8]; 15 µM): 1.01 | viability ([9]; 0.024 µM): 0.99 | viability ([9]; 0.12 µM): 1.02 | viability ([9]; 0.6 µM): 1.04 | viability ([9]; 3 µM): 1.1 | viability ([9]; 15 µM): 0.791 | viability ([10]; 0.024 µM): 0.847 | viability ([10]; 0.12 µM): 0.645 | viability ([10]; 0.6 µM): 0.822 | viability ([10]; 3 µM): 0.973 | viability ([10]; 15 µM): 0.587 | viability ([11]; 0.024 µM): 0.929 | viability ([11]; 0.12 µM): 1.13 | viability ([11]; 0.6 µM): 1.34 | viability ([11]; 3 µM): 1.98 | viability ([11]; 15 µM): 1.46 | viability ([12]; 0.024 µM): 1 | viability ([12]; 0.12 µM): 1.02 | viability ([12]; 0.6 µM): 1.03 | viability ([12]; 3 µM): 1.18 | viability ([12]; 15 µM): 1.35 | viability ([13]; 0.024 µM): 0.981 | viability ([13]; 0.12 µM): 1.01 | viability ([13]; 0.6 µM): 1.04 | viability ([13]; 3 µM): 1.05 | viability ([13]; 15 µM): 0.95 | viability ([14]; 0.024 µM): 0.955 | viability ([14]; 0.12 µM): 0.997 | viability ([14]; 0.6 µM): 1.02 | viability ([14]; 3 µM): 0.973 | viability ([14]; 15 µM): 0.948

Nc1nc(=S)c2[nH]cnc2[nH]1 [Thioguanin]
viability ([1]; 0.024 µM): 1.1 | viability ([1]; 0.12 µM): 1.09 | viability ([1]; 0.6 µM): 0.949 | viability ([1]; 3 µM): 0.66 | viability ([1]; 15 µM): 0.446 | viability ([2]; 0.024 µM): 1.14 | viability ([2]; 0.12 µM): 1.09 | viability ([2]; 0.6 µM): 1.07 | viability ([2]; 3 µM): 0.696 | viability ([2]; 15 µM): 0.489 | viability ([3]; 0.024 µM): 1.04 | viability ([3]; 0.12 µM): 1.18 | viability ([3]; 0.6 µM): 0.65 | viability ([3]; 3 µM): 0.497 | viability ([3]; 15 µM): 0.57 | viability ([4]; 0.024 µM): 0.945 | viability ([4]; 0.12 µM): 0.751 | viability ([4]; 0.6 µM): 0.615 | viability ([4]; 3 µM): 0.279 | viability ([4]; 15 µM): 0.152 | viability ([5]; 0.024 µM): 1 | viability ([5]; 0.12 µM): 0.937 | viability ([5]; 0.6 µM): 0.701 | viability ([5]; 3 µM): 0.481 | viability ([5]; 15 µM): 0.395 | viability ([6]; 0.024 µM): 0.964 | viability ([6]; 0.12 µM): 0.867 | viability ([6]; 0.6 µM): 0.49 | viability ([6]; 3 µM): 0.19 | viability ([6]; 15 µM): 0.114 | viability ([7]; 0.024 µM): 1.02 | viability ([7]; 0.12 µM): 0.879 | viability ([7]; 0.6 µM): 0.577 | viability ([7]; 3 µM): 0.403 | viability ([7]; 15 µM): 0.228 | viability ([8]; 0.024 µM): 1.02 | viability ([8]; 0.12 µM): 1.01 | viability ([8]; 0.6 µM): 0.768 | viability ([8]; 3 µM): 0.538 | viability ([8]; 15 µM): 0.387 | viability ([9]; 0.024 µM): 1.02 | viability ([9]; 0.12 µM): 0.821 | viability ([9]; 0.6 µM): 0.575 | viability ([9]; 3 µM): 0.453 | viability ([9]; 15 µM): 0.254 | viability ([10]; 0.024 µM): 0.765 | viability ([10]; 0.12 µM): 0.607 | viability ([10]; 0.6 µM): 0.648 | viability ([10]; 3 µM): 0.313 | viability ([10]; 15 µM): 0.0421 | viability ([11]; 0.024 µM): 0.859 | viability ([11]; 0.12 µM): 0.817 | viability ([11]; 0.6 µM): 0.919 | viability ([11]; 3 µM): 0.6 | viability ([11]; 15 µM): 0.254 | viability ([12]; 0.024 µM): 1.01 | viability ([12]; 0.12 µM): 0.972 | viability ([12]; 0.6 µM): 0.844 | viability ([12]; 3 µM): 0.602 | viability ([12]; 15 µM): 0.457 | viability ([13]; 0.024 µM): 1.02 | viability ([13]; 0.12 µM): 0.879 | viability ([13]; 0.6 µM): 0.681 | viability ([13]; 3 µM): 0.515 | viability ([13]; 15 µM): 0.388 | viability ([14]; 0.024 µM): 1.02 | viability ([14]; 0.12 µM): 0.986 | viability ([14]; 0.6 µM): 0.957 | viability ([14]; 3 µM): 0.9 | viability ([14]; 15 µM): 0.629
